Measurements as given in patent publication US12110293B2, “Substituted triazolo quinoxaline derivatives” (GRÜNENTHAL GMBH, priority 2018, dated 2024).

Biological target: T1, glucocorticoid receptor (Homo sapiens, UniProt P04150)
T1 construct: expressed in transfected cells
T1 sequence (P04150 524-758 limits assumed): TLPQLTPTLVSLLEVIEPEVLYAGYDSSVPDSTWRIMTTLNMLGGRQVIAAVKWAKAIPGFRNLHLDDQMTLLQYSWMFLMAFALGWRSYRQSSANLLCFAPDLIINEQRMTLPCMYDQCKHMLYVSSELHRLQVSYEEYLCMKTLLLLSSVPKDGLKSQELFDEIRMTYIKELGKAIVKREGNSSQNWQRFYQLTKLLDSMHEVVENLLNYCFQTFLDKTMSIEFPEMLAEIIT
Assay: Agonistic mode of action on the glucocorticoid receptor (CHO-Gal4/GR luciferase reporter cell line)
Assay type: cell-based
Conditions: range class observed in the agonistic assay or the antagonistic assay (CHO-Gal4/GR reporter cells); table does not say which mode applies per example
Summary of the method: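 Agonism measured as dose-dependent luciferase luminescence (FLIPR Tetra) from a GAL4-UAS reporter driven by GAL4 DBD fused to GR ligand-binding domain in stable CHO cells. Eight half-log doses, 10 μM to 0.003 μM final in 0.5% DMSO, quadruplicate, on cells seeded 24 h earlier at 5000/well; EC50 derived.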

| SMILES | IC50 or EC50 (agonist or antagonist mode not specified) [µM] |
| --- | --- |
| Cc1nnc2n1-c1c(cc(F)c(-c3cccc4c3ccn4C3CC3)c1C(F)F)NC2(C)C [Example 514, 8-(1-Cyclopropyl-1H-indol-4-yl)-9-(difluoro-methyl)-7-fluoro-1,4,4-trimethyl-5H-[1,2,4]triazolo[4,3-a]quinoxaline] | 0.1 to 1 |
| COc1c(-c2cc(C)cc3c2ccn3S(C)(=O)=O)c(F)cc2c1-n1c(C)nnc1C(C)(C)N2 [Example 477, 7-Fluoro-9-methoxy-1,4,4-trimethyl-8-(6-methyl-1-methylsulfonyl-1H-indol-4-yl)-5H-[1,2,4]triazolo[4,3-a]quinoxaline] | 0.1 to 1 |
| COc1c(-c2cccc3c2ccn3C)c(F)cc2c1-n1c(C)nnc1C(C)(C)N2 [Example 487, 7-Fluoro-9-methoxy-1,4,4-trimethyl-8-(1-methyl-1H-indol-4-yl)-5H-[1,2,4]triazolo[4,3-a] quinoxaline] | 0.1 to 1 |
| Cc1cc2c(-c3c(F)cc4c(c3F)-n3c(C)nnc3C(C)(C)N4)cc(F)cc2[nH]1 [Example 5, 7,9-difluoro-8-(6-fluoro-2-methyl-1H-indol-4-yl)-1,4,4-trimethyl-4,5-dihydro-[1,2,4]triazolo[4,3-a]quinoxaline] | 0.1 to 1 |
| COc1cc2c(c(F)c1-c1cc(F)cc3c(C)c[nH]c13)-n1c(C)nnc1C(C)(C)N2 [Example 251, 9-Fluoro-8-(5-fluoro-3-methyl-1H-indol-7-yl)-7-methoxy-1,4,4-trimethyl-5H-[1,2,4]triazolo[4,3-a]quinoxaline] | 0.1 to 1 |
| Cc1nnc2n1-c1c(cc(F)c(-c3cc(F)cc4c3ccn4C)c1C(F)F)NC2(C)C [Example 521, 9-(Difluoro-methyl)-7-fluoro-8-(6-fluoro-1-methyl-1H-indol-4-yl)-1,4,4-trimethyl-5H-[1,2,4]triazolo [4,3-a]quinoxaline] | < 0.1 |
| Cc1nnc2n1-c1c(cc(F)c(-c3cc(F)cc4cc[nH]c34)c1C(F)F)NC2(C)C [Example 515, 9-(Difluoro-methyl)-7-fluoro-8-(5-fluoro-1H-indol-7-yl)-1,4,4-trimethyl-5H-[1,2,4]triazolo[4,3-a] quinoxaline] | 0.1 to 1 |
| Cc1c(-c2cccc3c(C)n[nH]c23)c(F)cc2c1-n1c(C)nnc1C(C)(C)N2 [Example 361, 7-Fluoro-1,4,4,9-tetramethyl-8-(3-methyl-1H-indazol-7-yl)-5H-[1,2,4]triazolo[4,3-a]quinoxaline] | 1 to 15 |
| COc1cc2c(c(F)c1-c1cccc3[nH]ccc13)-n1c(C)nnc1C(C)(C)N2 [Example 256, 9-Fluoro-8-(1H-indol-4-yl)-7-methoxy-1,4,4-trimethyl-5H-[1,2,4]triazolo[4,3-a]quinoxaline] | 1 to 15 |
| Cc1c[nH]c2c(-c3c(Cl)cc4c(c3F)-n3c(C)nnc3C(C)(C)N4)cc(F)cc12 [Example 290, 7-Chloro-9-fluoro-8-(5-fluoro-3-methyl-1H-indol-7-yl)-1,4,4-trimethyl-5H-[1,2,4]triazolo[4,3-a]quinoxaline] | 0.1 to 1 |
| COCCn1ccc2c(-c3c(OC(F)(F)F)cc4c(c3C)-n3c(C)nnc3C(C)(C)N4)cccc21 [Example 460, 8-[1-(2-Methoxy-ethyl)-1H-indol-4-yl]-1,4,4,9-tetramethyl-7-(trifluoromethyloxy)-5H-[1,2,4]triazolo[4,3-a]quinoxaline] | 0.1 to 1 |
| Cc1c(-c2cc(F)cc3c2ccn3S(C)(=O)=O)c(OC(F)F)cc2c1-n1c(C)nnc1C(C)(C)N2 [Example 335, 7-(Difluoro-methoxy)-8-(6-fluoro-1-methylsulfonyl-1H-indol-4-yl)-1,4,4,9-tetramethyl-5H-[1,2,4] triazolo[4,3-a]quinoxaline] | 0.1 to 1 |
| COc1c(-c2cc(C(F)(F)F)cc3[nH]ccc23)c(F)cc2c1-n1c(C)nnc1C(C)(C)N2 [Example 474, 7-Fluoro-9-methoxy-1,4,4-trimethyl-8-[6-(trifluoromethyl)-1H-indol-4-yl]-5H-[1,2,4]triazolo[4,3-a] quinoxaline] | 0.1 to 1 |
| COCCn1ccc2c(-c3c(Cl)cc4c(c3F)-n3c(C)nnc3C(C)(C)N4)cc(F)cc21 [Example 404, 7-Chloro-9-fluoro-8-[6-fluoro-1-(2-methoxy-ethyl)-1H-indol-4-yl]-1,4,4-trimethyl-5H-[1,2,4]triazolo[4,3-a]quinoxaline] | 0.1 to 1 |
| COCCn1ncc2c(-c3c(F)cc4c(c3F)-n3c(C)nnc3C(C)(C)N4)cccc21 [Example 233, 7,9-Difluoro-8-[1-(2-methoxy-ethyl)-1H-indazol-4-yl]-1,4,4-trimethyl-5H-[1,2,4]triazolo[4,3-a]quinoxaline] | 0.1 to 1 |
| Cc1cc2c(c(C)c1-c1cccc3c1ccn3S(C)(=O)=O)-n1c(C)nnc1C(C)(C)N2 [Example 309, 1,4,4,7,9-Pentamethyl-8-(1-methylsulfonyl-1H-indol-4-yl)-5H-[1,2,4]triazolo[4,3-a]quinoxaline] | < 0.1 |
| COCCn1ccc2c(-c3c(C)cc4c(c3F)-n3c(C)nnc3C(C)(C)N4)cccc21 [Example 337, 9-Fluoro-8-[1-(2-methoxy-ethyl)-1H-indol-4-yl]-1,4,4,7-tetramethyl-5H-[1,2,4]triazolo[4,3-a]quinoxaline] | 1 to 15 |
| COc1cc(-c2c(F)cc3c(c2C(F)(F)F)-n2c(C)nnc2C(C)(C)N3)c2ccn(S(C)(=O)=O)c2c1 [Example 536, 7-Fluoro-8-(6-methoxy-1-methylsulfonyl-1H-indol-4-yl)-1,4,4-trimethyl-9-(trifluoro-methyl)-5H-[1,2,4]triazolo [4,3-a]quinoxaline] | 0.1 to 1 |
| COCCn1ccc2c(-c3c(F)cc4c(c3C(F)F)-n3c(C)nnc3C(C)(C)N4)cccc21 [Example 292, 9-(Difluoro-methyl)-7-fluoro-8-[1-(2-methoxy-ethyl)-1H-indol-4-yl]-1,4,4-trimethyl-5H-[1,2,4]triazolo[4,3-a]quinoxaline] | 0.1 to 1 |
| Cc1nnc2n1-c1c(cc(F)c(-c3cccc4nn(C)cc34)c1F)NC2(C)C [Example 222, 7,9-Difluoro-1,4,4-trimethyl-8-(2-methyl-2H-indazol-4-yl)-5H-[1,2,4]triazolo[4,3-a]quinoxaline] | 1 to 15 |
| Cc1c(-c2cc(F)cc3c2cnn3S(C)(=O)=O)c(Cl)cc2c1-n1c(C)nnc1C(C)(C)N2 [Example 347, 7-Chloro-8-(6-fluoro-1-methylsulfonyl-1H-indazol-4-yl)-1,4,4,9-tetramethyl-5H-[1,2,4]triazolo[4,3-a]quinoxaline] | 0.1 to 1 |
| COc1cc2c(c(C(F)(F)F)c1-c1cccc3c1ccn3CC(F)F)-n1c(C)nnc1C(C)(C)N2 [Example 500, 8-[1-(2,2-Difluoro-ethyl)-1H-indol-4-yl]-7-methoxy-1,4,4-trimethyl-9-(trifluoromethyl)-5H-[1,2,4]triazolo[4,3-a]quinoxaline] | 0.1 to 1 |
| Cc1nnc2n1-c1c(cc(F)c(-c3cc(F)cc4c3ccn4S(C)(=O)=O)c1C(F)F)NC2(C)C [Example 390, 9-(Difluoro-methyl)-7-fluoro-8-(6-fluoro-1-methylsulfonyl-1H-indol-4-yl)-1,4,4-trimethyl-5H-[1,2,4]triazolo[4,3-a]quinoxaline] | < 0.1 |
| CCc1nnc2n1-c1c(cc(F)c(-c3cccc4c3ccn4CCOC)c1C)NC2(C)C [Example 299, 1-Ethyl-7-fluoro-8-[1-(2-methoxy-ethyl)-1H-indol-4-yl]-4,4,9-trimethyl-5H-[1,2,4]triazolo[4,3-a]quinoxaline] | 1 to 15 |
| COc1cc2c(c(C(F)(F)F)c1-c1cc(F)cc3c1ccn3C)-n1c(C)nnc1C(C)(C)N2 [Example 517, 8-(6-Fluoro-1-methyl-1H-indol-4-yl)-7-methoxy-1,4,4-trimethyl-9-(trifluoromethyl)-5H-[1,2,4]triazolo [4,3-a]quinoxaline] | 0.1 to 1 |
| Cc1cc(-c2c(Cl)cc3c(c2C)-n2c(C)nnc2C(C)(C)N3)c2ccn(S(C)(=O)=O)c2c1 [Example 491, 7-Chloro-1,4,4,9-tetramethyl-8-(6-methyl-1-methylsulfonyl-1H-indol-4-yl)-5H-[1,2,4]triazolo[4,3-a] quinoxaline] | < 0.1 |
| Cc1c(-c2cccc3c2ccn3CC(F)F)c(OC(F)F)cc2c1-n1c(C)nnc1C(C)(C)N2 [Example 384, 8-[1-(2,2-Difluoro-ethyl)-1H-indol-4-yl]-7-(difluoro-methoxy)-1,4,4,9-tetramethyl-5H-[1,2,4]triazolo[4,3-a]quinoxaline] | 1 to 15 |
| Cc1c[nH]c2c(-c3c(F)cc4c(c3C(F)(F)F)-n3c(C)nnc3C(C)(C)N4)cccc12 [Example 29, 7-fluoro-1,4,4-trimethyl-8-(3-methyl-1H-indol-7-yl)-9-(trifluoromethyl)-4,5-dihydro-[1,2,4]triazolo[4,3-a]quinoxaline] | < 0.1 |
| Cc1nnc2n1-c1c(cc(F)c(-c3cccc4c3ccn4S(=O)(=O)CC3CC3)c1F)NC2(C)C [Example 210, 8-[1-(Cyclopropyl-methylsulfonyl)-1H-indol-4-yl]-7,9-difluoro-1,4,4-trimethyl-5H-[1,2,4]triazolo[4,3-a]quinoxaline] | < 0.1 |
